Laboratory results from patent US11084814B2, “Pyrido[3, 4-d]pyrimidine derivative and pharmaceutically acceptable salt thereof” (Teijin Pharma Limited, priority 2016, dated 2021).

Assays:
CDK2/cyclin A2 = target: T1, CDK2/cyclin A2 (Homo sapiens, UniProt P24941); test: Human CDK2/cyclin A2 inhibitory activity (QS S Assist CDK2/Cyclin A2_FP Kit, IMAP fluorescent polarization); assay type: biochemical; conditions: read-out: CDK2 Activity symbol
T1 construct: purchased Carna Biosciences, Inc. QS S Assist CDK2/Cyclin A2_FP Kit
Summary of the method: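 Kit CDK2/cyclin A2 (2.5 ng/well) was reacted with kit ATP/substrate/metal in 20 mM HEPES pH 7.4, 0.01% Tween 20 and 2 mM DTT for 60 min at room temperature. IMAP binding reagent was added for 30 min, then fluorescence polarization was read at 485/535 nm. IC50 came from dose-response fitting of percent inhibition.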

CDK4/cyclin D3 = target: T2, CDK4/cyclin D3 (Homo sapiens, UniProt P11802); test: Human CDK4/cyclin D3 inhibitory activity (QS S Assist CDK4/Cyclin D3_FP Kit, IMAP fluorescent polarization); assay type: biochemical; conditions: read-out: CDK4 Activity symbol
T2 construct: purchased Carna Biosciences, Inc. QS S Assist CDK4/Cyclin D3_FP Kit
T2 sequence (P11802 whole entry): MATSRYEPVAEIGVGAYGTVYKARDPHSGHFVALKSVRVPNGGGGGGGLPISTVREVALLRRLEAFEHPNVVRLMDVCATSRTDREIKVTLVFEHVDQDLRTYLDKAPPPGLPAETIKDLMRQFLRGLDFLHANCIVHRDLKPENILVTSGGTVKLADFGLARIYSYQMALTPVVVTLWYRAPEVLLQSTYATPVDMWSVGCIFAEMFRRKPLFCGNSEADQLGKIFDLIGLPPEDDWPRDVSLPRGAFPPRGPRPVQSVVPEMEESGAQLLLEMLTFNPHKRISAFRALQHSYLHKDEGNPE
T2 sequence (P30281 whole entry partner): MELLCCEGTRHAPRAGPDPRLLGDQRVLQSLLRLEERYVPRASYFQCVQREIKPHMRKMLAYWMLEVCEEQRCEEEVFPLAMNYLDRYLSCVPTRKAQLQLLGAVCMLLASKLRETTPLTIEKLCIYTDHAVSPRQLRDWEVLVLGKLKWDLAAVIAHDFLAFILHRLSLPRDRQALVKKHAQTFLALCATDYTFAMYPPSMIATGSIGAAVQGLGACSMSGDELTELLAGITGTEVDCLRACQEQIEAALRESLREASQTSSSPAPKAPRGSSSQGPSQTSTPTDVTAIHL
Summary of the method: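 Kinase reactions used kit CDK4/cyclin D3 at 12.5–25 ng/well with the kit ATP/substrate/metal mix in 20 mM HEPES (pH 7.4), 0.01% Tween20 and 2 mM DTT, run 45 min at room temperature. Phosphorylation was detected by IMAP fluorescence polarization (ex 485/em 535 nm) after 30 min binding in the dark. IC50 was fitted from percent inhibition against DMSO controls with and without enzyme.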

Row | Compound | IC50 (CDK2/cyclin A2) [nM] | IC50 (CDK4/cyclin D3) [nM]
1 | C[C@@H](O)c1cc2cnc(Nc3ccc4c(n3)CCN(CCO)C4)nc2c(N2CCC(C#N)CC2)n1 [Compound 278] | ≥ 100 | < 10
2 | C[C@@H](O)c1cc2cnc(Nc3ccc4c(n3)CCN(C3CN(C)C3)C4)nc2c(N2CCC(C#N)CC2)n1 [Compound 279] | ≥ 100 | < 10
3 | CC(O)c1cc2cnc(Nc3ccc4c(n3)CC3CCC4N3CCO)nc2c(N2CCCCC2)n1 (centres unmarked) [Compound 280] | ≥ 100 | 10 to 100
4 | C[C@@H](O)c1cc2cnc(Nc3ccc(N4CCNCC4=O)cn3)nc2c(N2C3CCCC2CC3)n1 [Compound 281] | ≥ 100 | < 10
5 | C[C@@H](O)c1cc2cnc(Nc3ccc4c(n3)CCN(C3CCOCC3)C4)nc2c(N2CCCCC2)n1 [Compound 282] | ≥ 100 | < 10
6 | C[C@@H](O)c1cc2cnc(Nc3ccc4c(n3)CCN([C@H]3CC[C@H](O)CC3)C4)nc2c(N2CCCCC2)n1 [Compound 283] | ≥ 100 | 10 to 100
7 | C[C@@H](O)c1cc2cnc(Nc3ccc4c(n3)CCN([C@H]3CC[C@@H](O)CC3)C4)nc2c(N2CCCCC2)n1 [Compound 284] | ≥ 100 | 10 to 100
8 | C[C@@H](O)c1cc2cnc(Nc3ccc4c(n3)CCN(C(=O)Cc3ccncc3)C4)nc2c(N2CCCCC2)n1 [Compound 285] | ≥ 100 | 10 to 100
9 | C[C@@H](O)c1cc2cnc(Nc3ccc4c(n3)CCN(C(=O)Cn3ccnc3)C4)nc2c(N2CCCCC2)n1 [Compound 286] | ≥ 100 | < 10
10 | C[C@@H](O)c1cc2cnc(Nc3ccc(N4CCNCC4)cn3)nc2c(N2CCOC[C@@H]2C)n1 [Compound 288] | ≥ 100 | < 10
11 | CC(O)c1cc2cnc(Nc3ccc(N4CCNCC4)cn3)nc2c(N2CCOCC2C)n1 (centres unmarked) [Compound 289] | ≥ 100 | < 10
12 | C[C@@H](O)c1cc2cnc(Nc3ccc(CN4CCN(C)CC4)cn3)nc2c(N2CCOC[C@@H]2C)n1 [Compound 290] | ≥ 100 | < 10
13 | CC(O)c1cc2cnc(Nc3ccc(CN4CCN(C)CC4)cn3)nc2c(N2C3CCC2COC3)n1 (centres unmarked) [Compound 292] | ≥ 100 | < 10
14 | C[C@@H](O)c1cc2cnc(Nc3ccc(CN4CCN(CCO)CC4)cn3)nc2c(N2CCOC[C@@H]2C)n1 [Compound 293] | ≥ 100 | 10 to 100
15 | CC(O)c1cc2cnc(Nc3ccc(CN4CCN(CCO)CC4)cn3)nc2c(N2CCOCC2C)n1 (centres unmarked) [Compound 294] | ≥ 100 | < 10
16 | CC(O)c1cc2cnc(Nc3ccc(CN4CCN(CCO)CC4)cn3)nc2c(N2C3CCC2COC3)n1 (centres unmarked) [Compound 295] | ≥ 100 | < 10
17 | Cc1nc(Nc2ncc3cc([C@@H](C)O)nc(N4CCOC[C@@H]4C)c3n2)ccc1N1CCNCC1 [Compound 296] | ≥ 100 | < 10
18 | Cc1nc(Nc2ncc3cc([C@@H](C)O)nc(N4CCOC[C@H]4C)c3n2)ccc1N1CCNCC1 [Compound 297] | ≥ 100 | < 10
19 | Cc1nc(Nc2ncc3cc([C@@H](C)O)nc(N4C5CCC4COC5)c3n2)ccc1N1CCNCC1 [Compound 298] | ≥ 100 | < 10
20 | C[C@@H](O)c1cc2cnc(Nc3ccc(N4CCNCC4=O)cn3)nc2c(N2CCOC[C@@H]2C)n1 [Compound 299] | ≥ 100 | 10 to 100
21 | CC(O)c1cc2cnc(Nc3ccc(N4CCNCC4=O)cn3)nc2c(N2CCOCC2C)n1 (centres unmarked) [Compound 300] | ≥ 100 | 10 to 100
22 | CC(O)c1cc2cnc(Nc3ccc(N4CCNCC4=O)cn3)nc2c(N2C3CCC2COC3)n1 (centres unmarked) [Compound 301] | ≥ 100 | 10 to 100
23 | CC(O)c1cc2cnc(Nc3ccc(N4CCNCC4=O)cn3)nc2c(N2CCCC2C)n1 (centres unmarked) [Compound 302] | 10 to 100 | < 10
24 | CC(O)c1cc2cnc(Nc3ccc(N4CCNCC4=O)cn3)nc2c(N2CCCCC2C)n1 (centres unmarked) [Compound 303] | ≥ 100 | < 10
25 | C[C@@H](O)c1cc2cnc(Nc3ccc(C(=O)N4CCCN(C)CC4)cn3)nc2c(N2CCCCC2)n1 [Compound 304] | 10 to 100 | < 10
26 | Cc1nc(Nc2ncc3cc([C@@H](C)O)nc(N4CCCCC4)c3n2)ccc1N1CCCNCC1=O [Compound 305] | 10 to 100 | < 10
27 | Cc1nc(Nc2ncc3cc([C@@H](C)O)nc(N4CCCCCC4)c3n2)ccc1N1CCCNCC1=O [Compound 306] | 10 to 100 | < 10
28 | C[C@@H](O)c1cc2cnc(Nc3ccc(N4CCCNCC4=O)cn3)nc2c(N2CCCCCC2)n1 [Compound 307] | 10 to 100 | < 10
